pIC50: −log10 of the molar value.
What was measured:
recombinant ASK1 = target: T1, recombinant ASK1 (Homo sapiens, UniProt Q99683); assay: ASK1 Biochemical Assay (HTRF KinEASE-STK S3); details: ATP 100 μM; read-out: Biochemical Assay IC50
T1 construct: purchased Carna Biosciences
Experimental: ASK1 biochemical assay was standardized using recombinant ASK1 (Carna Biosciences), substrate and detection reagents from Cisbio HRTF KinEASE-STK S3 kit. Enzyme concentration, ATP, biotinylated STK substrate and STK antibodies were titrated for enzyme assay. Assay was carried out in ASK1 kinase buffer, 10 mM MOPS pH-7, 10 mM Mg-acetate, 1 mM DTT, 0.025% NP40, 1.5% glycerol and 0.05% BSA. DMSO was used as vehicle control with a final concentration of 1%. A 5 ng of ASK1 enzyme was incubated with compound for 1 hour at 23° C. on a shaker at 100rpm. ATP and biotin substrate was added at a final concentration of 100 μM and 1 μM and incubated for 3 hours at 23° C. on a shaker at 100rpm. […] Delta F ratios were calculated from data obtained at excitation (337 nm) and emission wavelengths (665 nm and 620-10 nm). Substrate blank values was considered as negative control. Values from negative control was substrated from vehicle control and compound treated wells. Enzyme inhibition by compounds were calculated from vehicle controls, which represent uninterrupted enzyme's activity.

Human ASK1 = target: T2, Human ASK1 (Homo sapiens, UniProt Q99683); assay: ASK1 Cell Based Assay (phospho p38 read out in hASK1 transfected HEK293T-AP1 cells); details: HEK293T-AP1 cells, 1 mM hydrogen peroxide, phospho p38; read-out: Cell Based Assay IC50
T2 construct: expressed in transfected cells; host or cells: HEK293T-AP1
T2 sequence (Q99683 1-1374): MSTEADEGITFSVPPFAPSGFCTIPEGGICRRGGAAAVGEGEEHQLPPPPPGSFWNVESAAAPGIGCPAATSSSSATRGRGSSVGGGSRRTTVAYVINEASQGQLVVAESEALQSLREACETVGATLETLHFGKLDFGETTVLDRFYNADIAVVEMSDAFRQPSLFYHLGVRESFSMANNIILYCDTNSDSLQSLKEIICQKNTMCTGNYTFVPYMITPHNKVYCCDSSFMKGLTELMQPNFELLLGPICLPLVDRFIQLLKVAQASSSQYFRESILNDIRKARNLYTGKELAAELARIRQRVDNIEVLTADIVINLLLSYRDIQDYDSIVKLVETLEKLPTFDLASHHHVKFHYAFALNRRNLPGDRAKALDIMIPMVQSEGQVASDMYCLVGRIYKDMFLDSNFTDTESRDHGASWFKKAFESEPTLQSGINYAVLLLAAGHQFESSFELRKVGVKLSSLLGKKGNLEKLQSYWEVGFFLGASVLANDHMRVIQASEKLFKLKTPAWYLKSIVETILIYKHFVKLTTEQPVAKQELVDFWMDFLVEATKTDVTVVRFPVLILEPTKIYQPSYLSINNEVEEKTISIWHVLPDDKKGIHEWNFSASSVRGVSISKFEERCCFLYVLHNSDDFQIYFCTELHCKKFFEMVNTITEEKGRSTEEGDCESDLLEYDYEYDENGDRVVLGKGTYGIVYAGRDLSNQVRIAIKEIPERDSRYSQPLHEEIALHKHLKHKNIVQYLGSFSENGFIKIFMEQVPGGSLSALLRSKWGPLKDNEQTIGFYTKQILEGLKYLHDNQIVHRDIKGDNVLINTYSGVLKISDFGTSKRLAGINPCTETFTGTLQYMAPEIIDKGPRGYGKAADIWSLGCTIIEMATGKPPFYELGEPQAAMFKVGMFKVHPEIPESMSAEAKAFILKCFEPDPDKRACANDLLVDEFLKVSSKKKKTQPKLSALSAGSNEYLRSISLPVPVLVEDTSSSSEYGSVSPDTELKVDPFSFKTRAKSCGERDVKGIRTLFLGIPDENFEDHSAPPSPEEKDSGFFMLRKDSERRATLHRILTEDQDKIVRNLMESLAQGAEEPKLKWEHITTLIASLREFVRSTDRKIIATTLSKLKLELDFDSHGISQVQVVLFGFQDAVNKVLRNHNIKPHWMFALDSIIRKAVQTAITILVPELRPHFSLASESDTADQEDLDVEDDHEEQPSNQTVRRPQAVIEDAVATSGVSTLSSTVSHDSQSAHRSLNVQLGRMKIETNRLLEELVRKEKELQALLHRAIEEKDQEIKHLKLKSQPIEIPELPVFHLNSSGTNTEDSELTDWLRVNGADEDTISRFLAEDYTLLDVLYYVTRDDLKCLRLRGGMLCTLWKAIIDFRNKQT
Experimental: HEK293T-AP1 cells were seeded at a density of 20,000 cells per well in a poly-d-lysine coated 96 well microplate. Next day, cells were transfected with hASK1-pcDNA3.1 vector using lipofectamine 3000. After 24 hours of transfection, cells were treated with compounds for 24 hours in assay medium. DMSO was used as a vehicle control with a final DMSO concentration of 0.2%. On 4th day, medium was discarded and cells were activated with 1 mM hydrogen peroxide for 1 hour in the presence of compounds. Cells were lysed for 1 hour with 1× lysis buffer on a shaker at 100 rpm. Sixteen microliters of lysate was collected into a 384 well small volume plate. Phospho p38 levels in the lysate was detected by using CisbioPhospho-p38 MAPK (Thr180/Tyr182) #64P38PEG.Four microliters of phospho p38 antibodies labelled with europium cryptate and d2 acceptor, were added to the lysate and incubated overnight. TR-FRET was measured at an excitation of 335 nm and emission was measured at 615 nm and 665 nm in BMG FLUOstar multimode reader.
Compounds were assessed for ASK1 inhibition based on phospho p38 read out. […] Background control values were susbtracted from vehicle control as well as from compound treated wells.

Structure (SMILES)	pIC50 (recombinant ASK1)	pIC50 (Human ASK1)
CC(C)n1cnnc1-c1cccc(N2CCN(c3cccc(-c4ccncc4)c3)C2=O)n1 [Example 1011, 1-(6-(4-isopropyl-4H-1,2,4-triazol-3-yl)pyridin-2-yl)-3-(3-(pyridin-4-yl)phenyl)imidazolidin-2-one]	> 6.00	< 5.00
CC(C)n1cnnc1-c1cccc(N2CCN(c3cccc(-c4cnn(S(C)(=O)=O)c4)c3)C2=O)n1 [Example 1014, 1-(6-(4-isopropyl-4H-1,2,4-triazol-3-yl)pyridin-2-yl)-3-(3-(1-(methylsulfonyl)-1H-pyrazol-4-yl)phenyl)imidazolidin-2-one]	< 7.00	< 5.00
COc1ccc(-c2ccc(S(C)(=O)=O)nc2)cc1N1CCN(c2cccc(-c3nncn3C(C)C)n2)C1=O [Example 1019, 1-(6-(4-isopropyl-4H-1,2,4-triazol-3-yl)pyridin-2-yl)-3-(2-methoxy-5-(6-(methylsulfonyl)pyridin-3-yl)phenyl)imidazolidin-2-one]	< 7.00	< 5.00
CC(C)n1cnnc1-c1cccc(N2CCN(c3ccc(S(N)(=O)=O)cc3)C2=O)n1 [Example 1020, 4-(3-(6-(4-isopropyl-4H-1,2,4-triazol-3-yl)pyridin-2-yl)-2-oxoimidazolidin-1-yl)benzenesulfonamide]	> 7.00	< 5.00
CC(C)n1cnnc1-c1cccc(N2CCN(c3cc(-c4ccc(S(C)(=O)=O)nc4)ccc3F)C2=O)n1 [Example 1021, 1-(2-fluoro-5-(6-(methylsulfonyl)pyridin-3-yl)phenyl)-3-(6-(4-isopropyl-4H-1,2,4-triazol-3-yl)pyridin-2-yl)imidazolidin-2-one]	< 6.00	< 5.00
CC(C)n1cnnc1-c1cccc(N2CCN(c3ccc(S(N)(=O)=O)cc3)C2=O)n1 [Example 1023, 4-(3-(6-(4-isopropyl-4H-1,2,4-triazol-3-yl)pyridin-2-yl)-2-oxoimidazolidin-1-yl)benzenesulfonamide]		< 6.00
Cc1cc(N2CCN(c3cccc(-c4nncn4C(C)C)n3)C2=O)ccc1S(C)(=O)=O [Example 1029, 1-(6-(4-isopropyl-4H-1,2,4-triazol-3-yl)pyridin-2-yl)-3-(3-methyl-4-(methylsulfonyl)phenyl)imidazolidin-2-one]	> 7.00	< 6.00
CC(C)n1cnnc1-c1cccc(N2CCN(c3ccc(S(C)(=O)=O)cc3F)C2=O)n1 [Example 1032, 1-(2-fluoro-4-(methylsulfonyl)phenyl)-3-(6-(4-isopropyl-4H-1,2,4-triazol-3-yl)pyridin-2-yl)imidazolidin-2-one]	> 7.00	< 6.00
CC(C)n1cnnc1-c1cccc(N2CCN(c3ccncc3)C2=O)n1 [Example 1034, 1-(6-(4-isopropyl-4H-1,2,4-triazol-3-yl)pyridin-2-yl)-3-(pyridin-4-yl)imidazolidin-2-one]	> 7.00	< 6.00
CC(C)n1cnnc1-c1cccc(N2CCN(c3ccc(C#N)cc3)C2=O)n1 [Example 1035, 4-(3-(6-(4-isopropyl-4H-1,2,4-triazol-3-yl)pyridin-2-yl)-2-oxoimidazolidin-1-yl)benzonitrile]	> 7.00	< 5.00

More lines, now with the values ahead:

pIC50 (recombinant ASK1)	pIC50 (Human ASK1)	Structure (SMILES)
7.15	< 6.00	CC(C)n1cnnc1-c1cccc(N2CCN(c3cccc(-n4ccnc4)c3)C2=O)n1 [Example 1002, 1-(3-(1H-imidazol-1-yl)phenyl)-3-(6-(4-isopropyl-4H-1,2,4-triazol-3-yl)pyridin-2-yl)imidazolidin-2-one]
7.52	< 6.00	CC(C)n1cnnc1-c1cccc(N2CCN(c3cccc(-c4ccc(S(C)(=O)=O)cc4)c3)C2=O)n1 [Example 1007, 1-(6-(4-isopropyl-4H-1,2,4-triazol-3-yl)pyridin-2-yl)-3-(4′-(methylsulfonyl)-[1,1′-biphenyl]-3-yl)imidazolidin-2-one]
7.60	< 6.00	CC(C)n1cnnc1-c1cccc(N2CCN(c3cccc(-c4ccc(S(C)(=O)=O)nc4)c3)C2=O)n1 [Example 1010, 1-(6-(4-isopropyl-4H-1,2,4-triazol-3-yl)pyridin-2-yl)-3-(3-(6-(methylsulfonyl)pyridin-3-yl)phenyl)imidazolidin-2-one]
> 7.00	> 6.00	CC(C)n1cnnc1-c1cccc(N2CCN(c3ccc(S(C)(=O)=O)cc3)C2=O)n1 [Example 1013, 1-(6-(4-isopropyl-4H-1,2,4-triazol-3-yl)pyridin-2-yl)-3-(4-(methylsulfonyl)phenyl)imidazolidin-2-one]
> 7.00	< 6.00	CC(C)n1cnnc1-c1cccc(N2CCN(c3ccc(S(C)(=O)=O)nc3)C2=O)n1 [Example 1018, 1-(6-(4-isopropyl-4H-1,2,4-triazol-3-yl)pyridin-2-yl)-3-(6-(methylsulfonyl)pyridin-3-yl)imidazolidin-2-one]
> 7.00	< 6.00	CC(C)n1cnnc1-c1cccc(N2CCNC2=O)n1 [Example 1022, 1-(6-(4-isopropyl-4H-1,2,4-triazol-3-yl)pyridin-2-yl)imidazolidin-2-one]
> 7.00	> 6.00	CC(C)n1cnnc1-c1cccc(N2CCN(c3ccc(S(=O)(=O)C4CC4)cc3)C2=O)n1 [Example 1025, 1-(4-(cyclopropylsulfonyl)phenyl)-3-(6-(4-isopropyl-4H-1,2,4-triazol-3-yl)pyridin-2-yl)imidazolidin-2-one]
> 7.00	> 6.00	CC(C)n1cnnc1-c1cccc(N2CCN(c3ccc(-n4ccnc4)cc3)C2=O)n1 [Example 1036, 1-(4-(1H-imidazol-1-yl)phenyl)-3-(6-(4-isopropyl-4H-1,2,4-triazol-3-yl)pyridin-2-yl)imidazolidin-2-one]
> 7.00	> 6.00	CC(C)n1cnnc1-c1cccc(N2CCN(c3ccc(C(=O)C4CC4)cc3)C2=O)n1 [Example 1037, 1-(4-(cyclopropanecarbonyl)phenyl)-3-(6-(4-isopropyl-4H-1,2,4-triazol-3-yl)pyridin-2-yl)imidazolidin-2-one]
> 7.00	> 6.00	CC(C)n1cnnc1-c1cccc(N2CCN(c3ccc(S(C)(=O)=O)c(F)c3)C2=O)n1 [Example 1038, 1-(3-fluoro-4-(methylsulfonyl)phenyl)-3-(6-(4-isopropyl-4H-1,2,4-triazol-3-yl)pyridin-2-yl)imidazolidin-2-one]
